Measured values as given in the supplement of paper PMC11451515.

System: SEM cells
Test: cell viability relative to DMSO control; higher = less cytotoxic
Settings: 48 h
In short: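 Viability is a per-plate percentage relative to DMSO wells, with cell-free wells as background. CellTiter-Glo One luminescence was read after 48 h at 37°C on 1536-well plates (5 μl) of NOMO1 or SEM (500 cells/well) or P12-Ichikawa (1000 cells/well) leukemia cells. The cells had been adapted for at least four passages in each medium and pin-dosed with library compounds in DMSO from 47 μM to 0.79 nM in 11 threefold steps.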

[1] = HPLM + 10% dialyzed FBS, 0.000781 µM
[2] = HPLM + 10% dialyzed FBS, 0.00234 µM
[3] = HPLM + 10% dialyzed FBS, 0.00702 µM
[4] = HPLM + 10% dialyzed FBS, 0.0211 µM
[5] = HPLM + 10% dialyzed FBS, 0.0632 µM
[6] = HPLM + 10% dialyzed FBS, 0.19 µM
[7] = HPLM + 10% dialyzed FBS, 0.569 µM
[8] = HPLM + 10% dialyzed FBS, 1.71 µM
[9] = HPLM + 10% dialyzed FBS, 5.12 µM
[10] = HPLM + 10% dialyzed FBS, 15.4 µM
[11] = HPLM + 10% dialyzed FBS, 46.1 µM
[12] = RPMI 5 mM glucose + 10% FBS, 0.000781 µM
[13] = RPMI 5 mM glucose + 10% FBS, 0.00234 µM
[14] = RPMI 5 mM glucose + 10% FBS, 0.00702 µM
[15] = RPMI 5 mM glucose + 10% FBS, 0.0211 µM
[16] = RPMI 5 mM glucose + 10% FBS, 0.0632 µM
[17] = RPMI 5 mM glucose + 10% FBS, 0.19 µM
[18] = RPMI 5 mM glucose + 10% FBS, 0.569 µM
[19] = RPMI 5 mM glucose + 10% FBS, 1.71 µM
[20] = RPMI 5 mM glucose + 10% FBS, 5.12 µM
[21] = RPMI 5 mM glucose + 10% FBS, 15.4 µM
[22] = RPMI 5 mM glucose + 10% FBS, 46.1 µM
[23] = RPMI 5 mM glucose + 10% dialyzed FBS, 0.000781 µM
[24] = RPMI 5 mM glucose + 10% dialyzed FBS, 0.00234 µM
[25] = RPMI 5 mM glucose + 10% dialyzed FBS, 0.00702 µM
[26] = RPMI 5 mM glucose + 10% dialyzed FBS, 0.0211 µM
[27] = RPMI 5 mM glucose + 10% dialyzed FBS, 0.0632 µM
[28] = RPMI 5 mM glucose + 10% dialyzed FBS, 0.19 µM
[29] = RPMI 5 mM glucose + 10% dialyzed FBS, 0.569 µM
[30] = RPMI 5 mM glucose + 10% dialyzed FBS, 1.71 µM
[31] = RPMI 5 mM glucose + 10% dialyzed FBS, 5.12 µM
[32] = RPMI 5 mM glucose + 10% dialyzed FBS, 15.4 µM
[33] = RPMI 5 mM glucose + 10% dialyzed FBS, 46.1 µM

Row | Structure (SMILES) | cell viability [1] [%] | cell viability [2] [%] | cell viability [3] [%] | cell viability [4] [%] | cell viability [5] [%] | cell viability [6] [%] | cell viability [7] [%] | cell viability [8] [%] | cell viability [9] [%] | cell viability [10] [%] | cell viability [11] [%] | cell viability [12] [%] | cell viability [13] [%] | cell viability [14] [%] | cell viability [15] [%] | cell viability [16] [%] | cell viability [17] [%] | cell viability [18] [%] | cell viability [19] [%] | cell viability [20] [%] | cell viability [21] [%] | cell viability [22] [%] | cell viability [23] [%] | cell viability [24] [%] | cell viability [25] [%] | cell viability [26] [%] | cell viability [27] [%] | cell viability [28] [%] | cell viability [29] [%] | cell viability [30] [%] | cell viability [31] [%] | cell viability [32] [%] | cell viability [33] [%]
1 | C[C@H]([C@H](O)CCC(C)(C)O)[C@H]1CC[C@@]2(O)C/3=C/C(=O)[C@@H]4C[C@@H](O)[C@@H](O)C[C@]4(C)[C@H]3CC[C@]12C | 111 | 119 | 102 | 122 | 103 | 109 | 110 | 112 | 108 | 101 | 106 | 132 | 104 | 113 | 125 | 115 | 113 | 119 | 123 | 125 | 110 | 98 |  |  |  |  |  |  |  |  |  |  | 
2 | O=C(NC1CCOCC1)c1ccc(-c2cc(-c3c[nH]nc3-c3ccccn3)ccn2)cc1 | 106 | 108 | 108 | 115 | 117 | 120 | 114 | 112 | 105 | 120 | 114 | 124 | 116 | 124 | 121 | 118 | 132 | 104 | 120 | 118 | 122 | 122 | 98.7 | 108 | 110 | 111 | 104 | 105 | 106 | 104 | 113 | 110 | 123
3 | CN(C)Cc1ccc(-c2nc3cccc4c3n2CCNC4=O)cc1 | 100 | 105 | 93.5 | 114 | 114 | 118 | 122 | 121 | 127 | 119 | 113 | 103 | 106 | 119 | 117 | 109 | 127 | 94.7 | 120 | 129 | 109 | 115 | 91.4 | 96.3 | 107 | 94.7 | 97.8 | 107 | 93 | 98.7 | 105 | 110 | 98.3
4 | CSC1=CC(=CC=C1)NC2=NC3=C(C=N2)/C=C(C(=O)N3C)/C4=C(Cl)C=CC=C4Cl | 86.5 | 90.7 | 97.7 | 77.3 | 86.4 | 89.7 | 97 | 99.4 | 88.9 | 77 | 55.2 | 120 | 110 | 110 | 53.5 | 105 | 97.4 | 126 | 120 | 112 | 91.4 | 81.3 | 96.1 | 89 | 91.9 | 80.1 | 96 | 78.3 | 103 | 84.9 | 84.3 | 69.4 | 52.4
5 | CN(C)CCOC(c1ccccc1)c1ccccc1 | 90.4 | 90.5 | 108 | 110 | 106 | 98.1 | 97.1 | 94.3 | 91.8 | 92.9 | 90.3 | 107 | 107 | 113 | 105 | 111 | 114 | 104 | 117 | 94.1 | 116 | 97.5 | 104 | 96.8 | 115 | 121 | 119 | 114 | 122 | 102 | 94.8 | 94.4 | 92
6 | C[C@H]1CN(C[C@@H](C)O1)CC(=O)NC2=CC=C3SC4=C(CC3=C2)C=CC=C4\C5=C\C(=O)\C=C(/O5)N6CCOCC6 | 80.4 | 108 | 43 | 118 | 110 | 126 | 113 | 113 | 89.8 | 84.4 | 39.8 | 76.2 | 91.8 | 14.3 | 78.1 | 86.6 | 80.5 | 83.2 | 81.9 | 75.8 | 44.1 | 15 | 86.7 | 95.3 | 34.6 | 101 | 118 | 111 | 103 | 99.4 | 73.7 | 46.9 | 19.6
7 | COC1=CC=C2Nc3cc(Cl)ccc3C(N=C3C=C(CN4CCCC4)C(=O)C(CN4CCCC4)=C3)=C2N1 | 90.6 | 113 | 103 | 105 | 107 | 101 | 106 | 111 | 117 | 61.5 | 7.01 | 107 | 112 | 120 | 110 | 115 | 110 | 121 | 113 | 121 | 79 | 50.3 | 83.1 | 108 | 108 | 102 | 102 | 115 | 115 | 80.4 | 105 | 56.4 | 24
8 | COc1cc2c(N3CCN(C(=O)Nc4ccc(OC(C)C)cc4)CC3)ncnc2cc1OCCCN1CCCCC1 | 66.4 | 73.3 | 82.7 | 93.8 | 56.3 | 32.1 | 41.1 | 33.8 | 38 | 13.8 | 15.1 | 89.5 | 104 | 116 | 98.1 | 73 | 66.8 | 51.3 | 39.1 | 46.6 | 16.2 | 22.6 | 82.2 | 85.2 | 83.3 | 77.8 | 65 | 35.5 | 37.3 | 26.1 | 27.6 | 14.1 | 12.8
9 | Cc1c[nH]c(/C=C2\C(=O)Nc3ccccc32)c1CCC(=O)O | 102 | 107 | 112 | 103 | 89.8 | 90.1 | 69.7 | 51.6 | 42.6 | 26.7 | 39 | 61.2 | 83.1 | 83.6 | 64.7 | 72.7 | 49.3 | 50.6 | 34.1 | 27.6 | 28.1 | 26.6 | 107 | 105 | 99.6 | 94.7 | 90.8 | 75.8 | 67.6 | 47.1 | 33.6 | 25.7 | 46.5
10 | CC(=O)N1CCN(c2ccc(OCc3nn(C)c(C)c3-c3cccc4c(CCCOc5cc(C)c(Cl)c(C)c5)c(C(=O)O)n(Cc5cccnc5)c34)cc2)CC1 | 78.5 | 91.7 | 106 | 75.1 | 111 | 118 | 117 | 105 | 99.3 | 97.4 | 2.86 | 97.6 | 84.3 | 97.8 | 77.5 | 97.3 | 104 | 117 | 100 | 82.5 | 54 | 1.85 | 96.3 | 101 | 106 | 81.2 | 111 | 112 | 110 | 121 | 94.6 | 77.5 | 1.96
11 | CCCCN(CCCC)CCC(O)c1cc2c(Cl)cc(Cl)cc2c2cc(C(F)(F)F)ccc12 (stereo not drawn) | 92.5 | 93.3 | 84.3 | 104 | 108 | 122 | 36.2 | 61.7 | 117 | 91.3 | 109 | 109 | 105 | 107 | 115 | 116 | 141 | 48.4 | 52 | 111 | 89.7 | 89 | 92.1 | 116 | 109 | 110 | 105 | 118 | 46.2 | 48.3 | 104 | 83.1 | 105
12 | O=C/1\C=C(/OC(=C1)/C2=C3SC4=C(SC3=CC=C2)C=CC=C4)N5CCOCC5 | 74.3 | 84.1 | 92.6 | 21.5 | 99.7 | 105 | 102 | 104 | 96.3 | 90.3 | 86.7 | 85.8 | 92.7 | 101 | 15.8 | 109 | 117 | 108 | 105 | 106 | 105 | 112 | 91.5 | 87.6 | 88 | 15.5 | 93 | 99.1 | 96 | 108 | 91.4 | 85.5 | 91.3
13 | Cc1cc2c(C(C)C)c(O)c(O)c(C=O)c2c(O)c1-c1c(C)cc2c(C(C)C)c(O)c(O)c(C=O)c2c1O | 107 | 114 | 105 | 113 | 112 | 101 | 116 | 101 | 99.2 | 110 | 27.6 |  |  |  |  |  |  |  |  |  |  |  | 106 | 123 | 120 | 109 | 112 | 113 | 117 | 103 | 106 | 90 | 6.54
14 | CCC(=O)O[C@@]1([C@@H](C)C[C@H]2[C@@H]3CCC/4=C/C(=O)/C=C\[C@]4(C)[C@@]3(F)[C@@H](O)C[C@]12C)C(=O)CCl | 86 | 92.1 | 91.3 | 57.7 | 71.1 | 69.8 | 57 | 72.3 | 61.8 | 66.4 | 63.4 | 88.5 | 95.4 | 95.9 | 51.3 | 67.8 | 62.6 | 65.1 | 66.1 | 67.6 | 56 | 66.9 | 85.2 | 81 | 91.4 | 49.4 | 63.3 | 64.6 | 64.8 | 54.1 | 64.1 | 55.6 | 40.7
15 | Cc1ccc(-n2nc(C(C)(C)C)cc2NC(=O)Nc2ccc(OCCN3CCOCC3)c3ccccc23)cc1 | 78.7 | 94 | 91.9 | 90.8 | 86.7 | 100 | 84 | 86.2 | 82.2 | 63.7 | 61.8 | 96.6 | 115 | 104 | 103 | 87.1 | 87.1 | 84.1 | 80.8 | 83.6 | 64 | 74.8 | 89.9 | 97.9 | 79.6 | 94.1 | 92 | 90 | 83.7 | 84.7 | 84.1 | 51.7 | 58.8
